Experimental data as given in patent US20260365628A1, “SUBSTITUTED 3,4-DIHYDROQUINOLINONE INHIBITORS OF TSHR” (Septerna, Inc., priority 2022, published 2026).

Target: T1, hTSHR (Homo sapiens, UniProt P16473)
T1 construct: expressed in transfected cells
Experiment: hTSHR TR-FRET cAMP Assay (inhibition of M22-stimulated cAMP production)
Format: cell-based
Settings: Expi293F Inducible cells stably expressing hTSHR; cAMP HTRF; stimulated with EC80 of anti-TSHR antibody M22; 15 min compound preincubation, 30 min at 37° C.; read-out: Activity (IC50 bins)
Method in brief: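 Readout was a cAMP HTRF ratio of 655/620 nm after lysis, scaled between the EC80 M22 signal (0% inhibition) and no-agonist vehicle (100%). Frozen induced Expi293F-hTSHR cells saw test compounds (0.5% DMSO) for 15 min at 37 °C before 30 min of M22 stimulation at EC80.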

T1 sequence (P16473 21-764): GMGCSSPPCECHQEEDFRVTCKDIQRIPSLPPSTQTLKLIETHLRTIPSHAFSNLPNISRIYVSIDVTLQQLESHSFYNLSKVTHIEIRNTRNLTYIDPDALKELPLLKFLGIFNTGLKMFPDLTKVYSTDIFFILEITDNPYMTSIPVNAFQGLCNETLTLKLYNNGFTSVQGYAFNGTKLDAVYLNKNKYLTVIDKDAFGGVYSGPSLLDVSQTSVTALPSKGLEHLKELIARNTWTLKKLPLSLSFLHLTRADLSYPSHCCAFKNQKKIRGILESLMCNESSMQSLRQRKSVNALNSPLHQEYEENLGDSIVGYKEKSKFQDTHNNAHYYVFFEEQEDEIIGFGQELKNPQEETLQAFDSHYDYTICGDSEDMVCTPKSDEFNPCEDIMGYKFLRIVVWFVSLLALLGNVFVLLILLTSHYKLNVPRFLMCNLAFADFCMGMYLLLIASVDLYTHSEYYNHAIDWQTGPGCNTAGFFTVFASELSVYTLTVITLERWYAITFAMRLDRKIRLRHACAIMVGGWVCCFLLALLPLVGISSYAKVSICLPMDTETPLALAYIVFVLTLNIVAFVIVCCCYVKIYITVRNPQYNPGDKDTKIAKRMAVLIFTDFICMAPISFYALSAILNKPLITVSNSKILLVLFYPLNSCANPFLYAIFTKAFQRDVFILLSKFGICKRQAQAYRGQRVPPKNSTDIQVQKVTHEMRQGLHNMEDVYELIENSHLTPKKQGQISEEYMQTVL

| SMILES | IC50 [nM] |
| --- | --- |
| C[C@H]1Oc2cc(NC(=O)NC(C)(C)C)c(C#N)cc2N(Cc2cc(Cl)ccc2Cl)C1=O [Example 367, 3-tert-butyl-1-[(2R)-6-cyano-4-[(2,5-dichlorophenyl)methyl]-2-methyl-3-oxo-2H-1,4-benzoxazin-7-yl]urea] | 100 to 1000 |
| C[C@H]1Oc2c(cc(C#N)c(NC(=O)NC(C)(C)C)c2F)N(Cc2ccccc2)C1=O [Example 369, (R)-1-(4-benzyl-6-cyano-8-fluoro-2-methyl-3-oxo-3,4-dihydro-2H-benzo[b][1,4]oxazin-7-yl)-3-(tert-butyl)urea] | < 100 |
| C[C@@H](c1cc(Cl)ccc1F)n1c(=O)cnc2cc(NC(=O)NC(C)(C)C)c(Cl)cc21 [Example 372, (S)-1-(tert-butyl)-3-(7-chloro-1-(1-(5-chloro-2-fluorophenyl)ethyl)-2-oxo-1,2-dihydroquinoxalin-6-yl)urea] | < 100 |
| C[C@H]1Oc2cc(NC(=O)NC(C)(C)C)c(C#N)cc2N(Cc2cc(Cl)ccc2F)C1=O [Example 373, (R)-1-(tert-butyl)-3-(4-(5-chloro-2-fluorobenzyl)-6-cyano-2-methyl-3-oxo-3,4-dihydro-2H-benzo[b][1,4]oxazin-7-yl)urea] | 100 to 1000 |
| CC(c1cc(C(O)C(F)(F)F)ccc1F)n1c(=O)cnc2cc(NC(=O)NC(C)(C)C)ccc21 (centres unmarked) [Example 375, 1-(tert-butyl)-3-(1-(1-(2-fluoro-5-(2,2,2-trifluoro-1-hydroxyethyl)phenyl)ethyl)-2-oxo-1,2-dihydroquinoxalin-6-yl)urea] | > 1000 |

Continued, values first:

| IC50 [nM] | SMILES |
| --- | --- |
| < 100 | C[C@H]1Oc2nc(NC(=O)NC(C)(C)C)c(C(F)(F)F)cc2N(Cc2ccccc2)C1=O [Example 368, (R)-1-(1-benzyl-3-methyl-2-oxo-7-(trifluoromethyl)-2,3-dihydro-1H-pyrido[2,3-b][1,4]oxazin-6-yl)-3-(tert-butyl)urea] |
| < 100 | C[C@H]1Oc2c(cc(C#N)c(NC(=O)NC(C)(C)C)c2F)N(Cc2cccc(C(F)F)c2)C1=O [Example 370, (R)-1-(tert-butyl)-3-(6-cyano-4-(3-(difluoromethyl)benzyl)-8-fluoro-2-methyl-3-oxo-3,4-dihydro-2H-benzo[b][1,4]oxazin-7-yl)urea] |
| < 100 | C[C@H]1Oc2nc(NC(=O)NC(C)(C)C)c(C#N)cc2N(Cc2cccc(C(F)F)c2)C1=O [Example 371, (R)-1-(tert-butyl)-3-(7-cyano-1-(3-(difluoromethyl)benzyl)-3-methyl-2-oxo-2,3-dihydro-1H-pyrido[2,3-b][1,4]oxazin-6-yl)urea] |
| < 100 | C[C@H]1Oc2nc(NC(=O)NC(C)(C)C)c(C(F)(F)F)cc2N(Cc2cccc(C(F)F)c2)C1=O [Example 374, (R)-1-(tert-butyl)-3-(1-(3-(difluoromethyl)benzyl)-3-methyl-2-oxo-7-(trifluoromethyl)-2,3-dihydro-1H-pyrido[2,3-b][1,4]oxazin-6-yl)urea] |
| < 100 | C[C@H]1Oc2nc(NC(=O)NC(C)(C)C)c(C(F)(F)F)cc2N([C@@H](C)c2ccccc2)C1=O [Example 376, 1-(tert-butyl)-3-((R)-3-methyl-2-oxo-1-((S)-1-phenylethyl)-7-(trifluoromethyl)-2,3-dihydro-1H-pyrido[2,3-b][1,4]oxazin-6-yl)urea] |
| < 100 | C[C@@H](c1ccccc1)N1C(=O)CCc2nc(NC(=O)NC(C)(C)C)c(C(F)(F)F)cc21 [Example 377, (S)-1-(tert-butyl)-3-(6-oxo-5-(1-phenylethyl)-3-(trifluoromethyl)-5,6,7,8-tetrahydro-1,5-naphthyridin-2-yl)urea] |
